# Source: patent US11980658B2, “Immunotherapeutic molecules and uses thereof” (priority 2012, dated 2024)
# Entries after “also recorded” stand apart in the source; their conditions may differ. Where no end group is shown, it is not given here.
# Key:
# Assay type in all cases: cell-based, human
# HLA-DR, HLA-DQ, HLA-DP = test: HLA class II restriction of epitope recognition by TCL (blocking mAbs); conditions: anti-HLA-DR, -DP or -DQ mAbs
# Description: (§1) All culturing was performed in RPMI-1640 containing 2 mM L-glutamine, 100 IU/mL penicillin-streptomycin and 5% heat-inactivated human AB serum (Sigma-Aldrich, St Louis, USA) (cRPMI). Antigen-induced TCL proliferation was assessed by ^3H-thymidine (3H-TdR) uptake assays as described (Prickett et al. 2011 supra). A stimulation index (SI; cpm antigen-stimulated T cells/cpm unstimulated T cells) >2.5 was considered positive and all positive responses confirmed in >2 assays. HLA-restriction of epitope recognition by TCL was assessed using monoclonal antibodies (mAb) against HLA-DR (L243), HLA-DQ (SVP-L3) or HLA-DP (B7/21) to block epitope presentation as described (Prickett et al. 2011 supra). To allow detection of peptide-induced CD4+ T-cell proliferation within whole PBMC, 7-day cultures of CFSE-labelled PBMC were set up as described for TCL generation (Prickett et al. 2011 supra). At least 10,000 CD4^+ T cells were analyzed per sample and SI calculated as percentage of CD4^+CFSE^lo (proliferated) cells with antigen/percentage of CD4^+CFSE^lo cells without antigen (background). The detection threshold for a specific response in this assay was assessed by expanding peptide-specific TCL from proliferated CD4^+ cells over a range of SI values for three subjects. Specific TCL could be generated from divided T cells with SI as low as 1.1 in all three subjects (data not shown) allowing designation of an SI>1.1 as positive.
# There is no identified HLA-II association with peanut allergy (Shreffler et al. Ann Allergy Asthma Immunol 2006; 96(6):865-9), therefore peptides selected for therapy must bind diverse HLA-II molecules for wide applicability. To determine the HLA-II type presenting each epitope, anti-HLA-DR, -DP or -DQ mAbs were used to block individual epitope presentation to T cells. […] At least two subjects and/or TCL were tested per epitope (FIG. 8).
# [1] = test system: Ara h 1-specific CD4+ T-cell lines (TCL); test: Antigen-induced TCL proliferation, 3H-thymidine uptake assay; conditions: for Donor responder frequency for TCL recognition of Ara h 1 20-mer peptides: n=18 peanut-allergic subjects, SI≥2.5
# Source text: Ara h 1-specific oligoclonal TCL were generated from peripheral blood mononuclear cells (PBMC) of peanut-allergic subjects using 5,6-carboxyfluorescein diacetate succinimidylester (CFSE)-based methodology (Mannering et al. J Immunol Methods. 2005; 298(1-2):83-92) as described (Prickett et al. 2011 supra), with CPE ([…]), Ara h 1 (10 gg/mL) or 20-mer peptides spanning the Ara h 1 sequence (11 amino acid (aa) overlap (17 aa overlap for the last peptide); Table 5; 10 pg/mL/peptide) as the driving antigens. All TCL were tested for specificity (proliferation) to individual Ara h 1 20-mers (10 pg/mL) as well as CPE ([…]) and/or Ara h 1 (10 pg/mL) Core epitope sequences were mapped within selected 20-mers using peptide sets truncated from the N- or C-terminus of the 20-mer as described (Prickett et al. 2011 supra).
# as §1
# basophils = test: Basophil activation test (CD63 upregulation by flow cytometry)
# Description: Basophil activation was assessed by CD63 upregulation detected by flow cytometry as described (Drew et al. J Immunol. 2004; 173(9):5872-9). Positive controls were rabbit anti-human IgE antibody (7.5 ug/mL; DAKO Corporation, CA, USA), N-formyl-methionine-leucine-phenylalanine (fMLP) (0.4 ug/mL; Sigma) and CPE. CPE, Ara h 1 and peptides were tested over a 3-log concentration range (5, 0.5 and 0.05 ug/mL)
molecule,measurement,setting,value
GDVFIMPAAHPVAINASS (Chemcially synthezised) [(507-524)],HLA class II restriction (mAb that blocked epitope recognition),"HLA-DR, HLA-DQ, HLA-DP",blocked by anti-HLA-DR for some TCL but by anti-HLA-DQ for others; also recorded: HLA-DQ restricted
FQNLQNHRIVQIEAKPNTLV [(206-225)],TCL stimulation / recognition (in words),[1],efficiently stimulated TCL specific for either epitope
ALMLPHFNSKAMVIVVVNKG [compound 50],Donor responder frequency for TCL recognition of Ara h 1 20-mer peptides,[1],33%
WSTRSSENNEGVIVKVSKE [(353-371)],HLA class II restriction (mAb that blocked epitope recognition),"HLA-DR, HLA-DQ, HLA-DP",blocked by anti-HLA-DQ in both subjects tested
"NNFGKLFEVKPDKKNPQLQ [(409-427), NNFGKLFEVKPDKKNPQLQ]",Basophil activation (percentage of activated CD63hi basophils),basophils,8%
KAMVIVVVNKGTGNLELVAV (Chemcially Synthezised) [compound 51],TCL stimulation / recognition (in words),[1],efficiently stimulated TCL specific for either epitope
same,Donor responder frequency for TCL recognition of Ara h 1 20-mer peptides,[1],33%
VEIKEGALMLPHFNSKA (Chemcially synthezised) [(436-452)],HLA class II restriction (mAb that blocked epitope recognition),"HLA-DR, HLA-DQ, HLA-DP",blocked by anti-HLA-DR for some TCL but by anti-HLA-DQ for others
ALMLPHFNSKAMVIVVV (Chemcially synthezised) [(442-458)],HLA class II restriction (mAb that blocked epitope recognition),"HLA-DR, HLA-DQ, HLA-DP",HLA-DR-restricted
"Ara h 1: major peanut allergen, 7S seed storage glycoprotein or vicilin, enriched from CPE by liquid chromatography (protein, listed as Homo sapiens) MRGRVSPLMLLLGILVLASVSATHAKSSPYQKKTENPCAQRCLQSCQQEPDDLKQKACESRCTKLEYDPRCVYDPRGHTGTTNQRSPPGERTRGRQPGDYDDDRRQPRREEGGRWGPAGPREREREEDWRQPREDWRRPSHQQPRKIRPEGREGEQEWGTPGSHVREETSRNNPFYFPSRRFSTRYGNQNGRIRVLQRFDQRSRQFQNLQNHRIVQIEAKPNTLVLPKHADADNILVIQQGQATVTVANGNNRKSFNLDEGHALRIPSGFISYILNRHDNQNLRVAKISMPVNTPGQFEDFFPASSRDQSSYLQGFSRNTLEAAFNAEFNEIRRVLLEENAGGEQEERGQRRWSTRSSENNEGVIVKVSKEHVEELTKHAKSVSKKGSEEEGDITNPINLREGEPDLSNNFGKLFEVKPDKKNPQLQDLDMMLTCVEIKEGALMLPHFNSKAMVIVVVNKGTGNLELVAVRKEQQQRGRREEEEDEDEEEEGSNREVRRYTARLKEGDVFIMPAAHPVAINASSELHLLGFGINAENNHRIFLAGDKDNVIDQIEKQAKDLAFPGSGEQVEKLIKNQKESHFVSARPQSQSQSPSSPEKESPEKEDQEEENQGGKGPLLSILKAFN",Basophil activation (percentage of activated CD63hi basophils),basophils,80-90%
